Results from US20070032468A1, “Novel thioxanthine derivatives for use as inhibitors of mpo” (AstraZeneca AB, priority 2003, published 2007).
pIC50: −log10 of the molar value.

Target: T1, human MPO (Homo sapiens, UniProt P05164)
T1 sequence (P05164 49-745): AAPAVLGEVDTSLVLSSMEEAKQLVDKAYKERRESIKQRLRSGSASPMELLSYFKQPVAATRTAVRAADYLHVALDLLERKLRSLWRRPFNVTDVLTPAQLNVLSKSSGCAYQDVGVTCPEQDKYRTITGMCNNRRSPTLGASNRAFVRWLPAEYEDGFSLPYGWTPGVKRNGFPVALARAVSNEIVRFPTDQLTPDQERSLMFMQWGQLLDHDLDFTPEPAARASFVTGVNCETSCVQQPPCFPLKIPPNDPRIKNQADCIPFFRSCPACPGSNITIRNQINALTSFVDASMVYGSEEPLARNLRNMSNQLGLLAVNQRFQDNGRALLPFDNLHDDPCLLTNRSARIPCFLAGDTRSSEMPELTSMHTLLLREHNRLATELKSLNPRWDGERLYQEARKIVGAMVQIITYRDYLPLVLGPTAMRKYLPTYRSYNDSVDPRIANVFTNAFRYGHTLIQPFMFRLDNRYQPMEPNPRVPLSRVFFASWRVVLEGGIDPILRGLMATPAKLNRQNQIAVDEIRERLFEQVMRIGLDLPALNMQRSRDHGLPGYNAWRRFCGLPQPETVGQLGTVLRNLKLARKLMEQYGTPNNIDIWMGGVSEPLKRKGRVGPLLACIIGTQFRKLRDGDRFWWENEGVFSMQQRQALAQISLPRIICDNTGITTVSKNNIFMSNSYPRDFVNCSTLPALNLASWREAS
Experiment: MPO inhibitory activity screen (TMB oxidation, absorbance)
Type: biochemical
Conditions: human MPO 2.5 nM, H2O2 100 μM, buffer pH 6.5, absorbance at about 650 nM
Experimental: Methods for the determination of MPO inhibitory activity are disclosed in co-pending patent application WO 02/090575. The pharmacological activity of compounds according to the invention was tested in the following screen:
Assay buffer: 20 mM sodium/potassium phosphate buffer pH 6.5 containing 10 mM taurine and 100 mM NaCl.
Developing reagent: 2 mM 3,3′,5,5′-tetramethylbenzidine (TMB), 200 μM KI, 200 mM acetate buffer pH 5.4 with 20% DMF.
To 10 μl of diluted compounds in assay buffer, 40 μl of human MPO (final concentration 2.5 nM) was added for 10 minutes at room temperature. Then 50 μl of H2O2 (final concentration 100 μM), or assay buffer alone as a control, were added for 10 minutes at room temperature. The reaction was stopped by adding 10 μl 0.2 mg/ml of catalase (final concentration 18 μg/ml) for 5 minutes before 100 μl of TMB developing reagent was added (2 mM TMB in 200 mM acetate buffer pH 5.4 containing 20% dimethylformamide (DMF) and 200 μM KI). Plates were mixed and the amount of oxidised 3,3′,5,5′-tetramethylbenzidine formed was then measured after about 5 minutes using absorbance spectroscopy at about […]. IC50 values were then determined using standard procedures.

With `CC(C)Cn1c(=S)[nH]c(=O)c2[nH]c(C(F)(F)F)nc21` [Example 1, 3-Isobutyl-2-thioxo-8-trifluoromethyl-1,2,3,7-tetrahydro-purin-6-one] the pIC50 was greater than 4.22.
